Data taken from the NIST ThermoML archive (doi:10.1016/j.jct.2016.02.009).

Experiment: molar heat capacity at constant pressure
Details: 101.33 kPa, Crystal 2, Small (less than 1 g) adiabatic calorimetry

CCCCCCCCCCCCCCn1cc[n+](C)c1.O=S(=O)([N-]S(=O)(=O)C(F)(F)F)C(F)(F)F
Details	molar heat capacity at constant pressure [J/K/mol]
4.89 K	3.21
5 K	3.43
5.1 K	3.64
5.39 K	4.23
5.69 K	4.88
6 K	5.63
6.34 K	6.47
6.73 K	7.47
7.11 K	8.54
7.5 K	9.67
7.9 K	10.86
8.3 K	12.12
8.7 K	13.43
9.11 K	14.79
9.52 K	16.21
9.93 K	17.69
10 K	17.94
10.45 K	19.63
11.1 K	22.1
11.75 K	24.67
12.39 K	27.32
13.04 K	30.06
13.7 K	32.85
14.36 K	35.72
15 K	38.56
15.02 K	38.63
15.8 K	42.14
16.7 K	46.22
17.61 K	50.37
18.51 K	54.57
19.42 K	58.74
20 K	61.41
20.33 K	62.84
21.54 K	68.49
23.07 K	75.56
24.61 K	82.47
25 K	84.18
26.14 K	89.18
27.68 K	95.96
29.23 K	102.6
30 K	105.9
30.94 K	110.1
32.82 K	117.9
34.72 K	125.4
35 K	126.4
36.61 K	132.8
38.5 K	140.1
40 K	145.8
40.39 K	147.2
42.38 K	154.5
44.49 K	162.2
45 K	164.1
46.6 K	169.8
48.71 K	177.1
50 K	181.5
50.83 K	184.3
52.96 K	191.2
55.08 K	198
57.2 K	204.8
59.33 K	211.5
60 K	213.6
61.45 K	218
63.59 K	224.5
65.72 K	230.7
67.86 K	236.8
70 K	242.6
70.01 K	242.5
72.16 K	248.4
74.3 K	254.1
76.46 K	260.1
78.61 K	266.1
80 K	269.2
80.77 K	271.8
81.2 K	272.4
